US10633579B2, “Use of environmentally friendly solvents to replace glycol-based solvents” (RHODIA OPERATIONS, priority 2011, dated 2020)

What was measured:
Format in all cases: physicochemical
[1] = Surface tension by the ring method (Du Nouy method); settings: undiluted solvent, about 50 milliliters sample
Procedure: Surface Tension: Referring generally to Table 2, interfacial tension is measured for each test solvent or solvent blend for EGMBE-replacement. No further dilution is performed on the solvent prior to measurement. Interfacial tension was measured using about 50 milliliters sample by the ring method (Du Nouy method).

[2] = Wettability of EGMBE compared with alternative solvents/blends
[3] = Miscibility test with common oilfield solvents (Tables 3-5); design: key: S = separate; M = miscible; settings: 50/50 volume per volume; for Solubility in Crude oil: shaken about a minute, let stand about 5 mins
Procedure: For each test solvent, it is blended with a common solvent at 50/50 volume per volume ratio. It is shaken vigorously for about a minute and let stand for about 5 mins. A complete miscibility is recorded if there is no formation of layers. Formation of turbid mixture or multiple layers is recorded as immiscible or separate.

[4] = Blends miscible in water and in mud solvents (Table 6); settings: 50/50 wt, room temperature
Procedure: Miscibility Test: Referring generally to Tables 4-6, the test solvent or solvent blend for EGMBE-replacement is mixed with common solvents used in oilfield industries to determine miscibility. […] It is shaken vigorously for about a minute and let stand for about 5 mins. A complete miscibility is recorded if there is no formation of layers. Formation of turbid mixture or multiple layers is recorded as immiscible or separate.

[5] = Miscibility of alkyldimethylamides as stated in the text

SMILES | ST (surface tension) [1] | wettability, Mean (°) [2] | Solubility in Alpha Olefin C1618 [3] | Solubility in Brines (Forties FW) [3] | Solubility in D-Limonene [3] | Solubility in Dodecane (to mimic Kerosen) [3] | Solubility in Exxsol D100 [3] | Solubility in Solvesso 150 ND [3] | Solubility in Water [3] | Solubility in isoparrafin [3] | Solubility in isopropanol [3] | Solubility in toluene [3] | Solubility in xylene [3] | Solubility in Crude oil [3] | also measured
CC1(C)OCC(CO)O1 (stereo not shown) [Augeo SL 191] | 31.9988 mN/m | 50.5 ° | S | M | M | S | S | M | M | S | M | M | M | S | 
CCCCOCCOCCO [Butyl Carbitol, diethylene glycol butyl ether] |  | 50.8 ° |  |  |  |  |  |  |  |  |  |  |  |  | 
CCCCOCC(C)O (stereo not shown) [Dowanol, propylene glycol n-butyl ether] |  | 29.8 ° | M | S | M | M | M | M | S | M | M | M | M | M | 
CCCCOCCO [EGMBE, ethyleneglycolmonobutyl ether] | 26.3757 mN/m | 45.0 ° |  |  |  |  |  |  |  |  |  |  |  |  | Miscibility in Alpha Olefin C1618 [4]: miscible; Miscibility in D-Limonene [4]: miscible; Miscibility in Exxsol D100 [4]: miscible; Miscibility in Isopar L [4]: miscible; Miscibility in Water [4]: miscible; Miscibility in xylene [4]: miscible
CC(C)O [IPA, isopropyl alcohol] |  |  | M | M | M | M | M | M | M | M | M | M | M | M | 
CCCCCCCC(=O)N(C)C [N,N-dimethyloctanamide] |  |  |  |  |  |  |  |  |  |  |  |  |  |  | miscibility [5]: 0.43%
COC(=O)C(C)CCC(=O)N(C)C (stereo not shown) [Polarclean] | 33.871 mN/m | 48.9 ° | S | M | M | S | S | M | M | S | M | M | M | S | 
O [Water] |  | 109.2 ° |  |  |  |  |  |  |  |  |  |  |  |  | 
